Test results taken from PubChem BioAssay AID248 (DTP/NCI, 2004).
“And” between values parts separate entries of the source, which are not always exact repeats. Equal entries are not always repeated. Inconclusive results and toxic doses are left out. No stated cut-off is given here; in the data, active means T/C of 150% or more; inactive means T/C below 125%.

System: L1210 leukemia ip in BDF1 mice, survival T/C
Assay: NCI In Vivo Anticancer Drug Screen. Data for tumor model L1210 Leukemia (intraperitoneal) in B6D2F1 (BDF1) mice
Details: endpoint: mean survival time, higher = longer survival
Method in brief: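 Each compound was tested against a transplantable tumor grown in mice. The endpoint was survival, with treated animals benchmarked against vehicle controls as a simple ratio.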

[1] = dose: 100.0 mg/kg/injection, schedule: Q01DX001 (ip), vehicle: carboxymethylcellulose (CMC)
[2] = dose: 200.0 mg/kg/injection, schedule: Q01DX001 (ip), vehicle: carboxymethylcellulose (CMC)
[3] = dose: 400.0 mg/kg/injection, schedule: Q01DX001 (ip), vehicle: carboxymethylcellulose (CMC)
[4] = dose: 75.0 mg/kg/injection, schedule: Q01DX001 (ip), vehicle: saline
[5] = dose: 150.0 mg/kg/injection, schedule: Q01DX001 (ip), vehicle: saline
[6] = dose: 300.0 mg/kg/injection, schedule: Q01DX001 (ip), vehicle: saline
[7] = dose: 100.0 mg/kg/injection, schedule: Q01DX009 (ip), vehicle: Klucel (hydroxypropylcellulose) (HPC)
[8] = dose: 100.0 mg/kg/injection, schedule: Q04DX003 (ip), vehicle: Klucel (hydroxypropylcellulose) (HPC)
[9] = dose: 200.0 mg/kg/injection, schedule: Q04DX003 (ip), vehicle: Klucel (hydroxypropylcellulose) (HPC)
[10] = dose: 400.0 mg/kg/injection, schedule: Q04DX003 (ip), vehicle: Klucel (hydroxypropylcellulose) (HPC)
[11] = dose: 50.0 mg/kg/injection, schedule: Q01DX001 (ip), vehicle: saline
[12] = dose: 100.0 mg/kg/injection, schedule: Q01DX001 (ip), vehicle: saline
[13] = dose: 200.0 mg/kg/injection, schedule: Q01DX001 (ip), vehicle: saline
[14] = dose: 100.0 mg/kg/injection, schedule: Q01DX009 (ip), vehicle: saline with Tween-80

Measured: T/C

CCN1C(=O)CC(SC2CC(=O)N(CC)C2=O)C1=O (stereo not drawn)
inactive: [1] 100 % of control | [2] 94 % of control | [3] 94 % of control

CCNC(=O)NCc1ccccc1Cl
inactive: dose: 100.0 mg/kg/injection, schedule: Q04DX002 (ip), vehicle: Klucel (hydroxypropylcellulose) (HPC) 97 % of control | dose: 200.0 mg/kg/injection, schedule: Q04DX002 (ip), vehicle: Klucel (hydroxypropylcellulose) (HPC) 102 % of control | dose: 400.0 mg/kg/injection, schedule: Q04DX002 (ip), vehicle: Klucel (hydroxypropylcellulose) (HPC) 112 % of control

CC(S)CNCCSC(=O)c1ccccc1 (stereo not drawn)
inactive: dose: 100.0 mg/kg/injection, schedule: Q04DX003 (ip), vehicle: acetone 91 % of control | dose: 200.0 mg/kg/injection, schedule: Q04DX003 (ip), vehicle: acetone 102 % of control | dose: 400.0 mg/kg/injection, schedule: Q04DX003 (ip), vehicle: acetone 97 % of control

COc1cc([N+](=O)[O-])c2[nH]c(=O)ccc2c1
inactive: [1] 97 % of control | [2] 94 % of control | [3] 97 % of control

c1cc2cnc3cccc4cnc(c1)c2c43
inactive: dose: 100.0 mg/kg/injection, schedule: Q04DX003 (ip), vehicle: saline sonified 105 % of control | dose: 200.0 mg/kg/injection, schedule: Q04DX003 (ip), vehicle: saline sonified 95 % of control | dose: 400.0 mg/kg/injection, schedule: Q04DX003 (ip), vehicle: saline sonified 97 % of control

Nc1ncccc1C(=O)O
inactive: dose: 62.5 mg/kg/injection, schedule: Q01DX010 (ip), vehicle: saline 96 % of control and 100 % of control | [1] 101 % of control | dose: 125.0 mg/kg/injection, schedule: Q01DX010 (ip), vehicle: saline 93 % of control and 109 % of control | [2] 98 % of control | dose: 250.0 mg/kg/injection, schedule: Q01DX010 (ip), vehicle: saline 102 % of control and 90 % of control | [3] 95 % of control | dose: 500.0 mg/kg/injection, schedule: Q01DX010 (ip), vehicle: saline 100 % of control and 90 % of control

NC(N)=N/N=C/c1ccc(O)c(C(=O)O)c1
inactive: dose: 15.0 mg/kg/injection, schedule: Q01DX Z (ip), vehicle: methylcellulose (MC) 92 % of control | dose: 30.0 mg/kg/injection, schedule: Q01DX Z (ip), vehicle: methylcellulose (MC) 94 % of control | dose: 60.0 mg/kg/injection, schedule: Q01DX Z (ip), vehicle: methylcellulose (MC) 106 % of control | dose: 60.0 mg/kg/injection, schedule: Q01DX Z (oral), vehicle: methylcellulose (MC) 108 % of control | dose: 120.0 mg/kg/injection, schedule: Q01DX Z (ip), vehicle: methylcellulose (MC) 88 % of control | dose: 120.0 mg/kg/injection, schedule: Q01DX Z (oral), vehicle: methylcellulose (MC) 113 % of control | dose: 250.0 mg/kg/injection, schedule: Q01DX Z (oral), vehicle: methylcellulose (MC) 89 % of control

O=C(N[C@@H](c1ccccc1)[C@H](N=Cc1ccccc1)c1ccccc1)c1ccccc1
inactive: dose: 50.0 mg/kg/injection, schedule: Q01DX009 (ip), vehicle: saline 93 % of control | dose: 50.0 mg/kg/injection, schedule: Q04DX003 (ip), vehicle: saline 95 % of control | dose: 100.0 mg/kg/injection, schedule: Q01DX009 (ip), vehicle: saline 90 % of control | dose: 100.0 mg/kg/injection, schedule: Q04DX003 (ip), vehicle: saline 86 % of control and 92 % of control | dose: 200.0 mg/kg/injection, schedule: Q01DX009 (ip), vehicle: saline 87 % of control | dose: 200.0 mg/kg/injection, schedule: Q04DX003 (ip), vehicle: saline 94 % of control | dose: 400.0 mg/kg/injection, schedule: Q01DX009 (ip), vehicle: saline 95 % of control and 87 % of control | dose: 400.0 mg/kg/injection, schedule: Q04DX003 (ip), vehicle: saline 86 % of control and 92 % of control

C=CS(=O)(=O)CCCCCCC
inactive: [4] 96 % of control | [5] 94 % of control | [6] 97 % of control

O=C(CCl)Nc1ccc2c(c1)-n1cccc1C2=O
inactive: dose: 25.0 mg/kg/injection, schedule: Q01DX009 (ip), vehicle: Klucel (hydroxypropylcellulose) (HPC) 89 % of control | dose: 50.0 mg/kg/injection, schedule: Q01DX009 (ip), vehicle: Klucel (hydroxypropylcellulose) (HPC) 91 % of control | [7] 86 % of control | [8] 93 % of control | [9] 96 % of control | [10] 100 % of control

Cc1cc(N(C)C)cc(C)c1N=Nc1cc(Cl)ccc1Cl
inactive: [8] 94 % of control | [9] 96 % of control | [10] 87 % of control

O=C(NCCCl)Nc1ccc(Cl)c(Cl)c1
inactive: [1] 101 % of control | [7] 94 % of control | [2] 95 % of control | dose: 200.0 mg/kg/injection, schedule: Q01DX009 (ip), vehicle: Klucel (hydroxypropylcellulose) (HPC) 98 % of control | [3] 106 % of control

NC(=S)c1n[nH]nc1N
inactive: [11] 104 % of control | [12] 100 % of control | [13] 100 % of control

Cc1ccc(S(=O)(=O)N/N=C2\C(=O)C3CCC2C3Cl)cc1 (stereo not drawn)
inactive: dose: 75.0 mg/kg/injection, schedule: Q01DX001 (ip), vehicle: other 89 % of control | dose: 150.0 mg/kg/injection, schedule: Q01DX001 (ip), vehicle: other 92 % of control

CCOC(=O)C(C(=O)c1ccccc1)=P(c1ccccc1)(c1ccccc1)c1ccccc1
inactive: [8] 100 % of control | [9] 100 % of control | [10] 102 % of control

O=C1NC(=S)SC1N=Nc1ccc(S(=O)(=O)Nc2ncccn2)cc1 (stereo not drawn)
inactive: [4] 104 % of control | [5] 102 % of control | [6] 100 % of control

OC1(c2ccccc2)c2ccccc2-c2ccccc21
inactive: [14] 101 % of control | dose: 100.0 mg/kg/injection, schedule: Q04DX003 (ip), vehicle: saline with Tween-80 98 % of control | dose: 200.0 mg/kg/injection, schedule: Q01DX009 (ip), vehicle: saline with Tween-80 106 % of control | dose: 200.0 mg/kg/injection, schedule: Q04DX003 (ip), vehicle: saline with Tween-80 93 % of control | dose: 400.0 mg/kg/injection, schedule: Q01DX009 (ip), vehicle: saline with Tween-80 106 % of control | dose: 400.0 mg/kg/injection, schedule: Q04DX003 (ip), vehicle: saline with Tween-80 95 % of control

COc1ccc2[nH]c3c(C)c4cc[n+](C)cc4c(C)c3c2c1
inactive: dose: 6.25 mg/kg/injection, schedule: Q04DX003 (ip), vehicle: saline sonified 105 % of control | dose: 10.0 mg/kg/injection, schedule: Q04DX003 (ip), vehicle: saline 115 % of control | dose: 12.5 mg/kg/injection, schedule: Q04DX003 (ip), vehicle: saline sonified 122 % of control | dose: 20.0 mg/kg/injection, schedule: Q04DX003 (ip), vehicle: saline 88 % of control

N#CC(C#N)=c1ccc(=C(C#N)C#N)cc1
inactive: dose: 25.0 mg/kg/injection, schedule: Q01DX009 (ip), vehicle: saline with Tween-80 91 % of control | [11] 94 % of control | dose: 50.0 mg/kg/injection, schedule: Q01DX009 (ip), vehicle: saline with Tween-80 89 % of control | [12] 103 % of control | [14] 91 % of control | [13] 103 % of control

S=P(NCCSCc1ccccc1)(N1CC1)N1CC1
inactive: dose: 6.5 mg/kg/injection, schedule: Q01DX011 (ip), vehicle: carboxymethylcellulose (CMC) 98 % of control | dose: 13.0 mg/kg/injection, schedule: Q01DX011 (ip), vehicle: carboxymethylcellulose (CMC) 102 % of control | dose: 26.0 mg/kg/injection, schedule: Q01DX011 (ip), vehicle: carboxymethylcellulose (CMC) 110 % of control | dose: 200.0 mg/kg/injection, schedule: Q01DX015 (ip), vehicle: carboxymethylcellulose (CMC) 106 % of control

O=C(CCC(=O)Nc1ccccc1)Nc1ccccc1
inactive: [1] 96 % of control | [2] 102 % of control | [3] 102 % of control
